Experimental findings from PubChem BioAssay (NCI) are described below.

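Exposure lasted 48 hours, with cells grown in 96-well plates and compounds tested at five concentrations. Here, GI50 denotes the concentration required for 50% inhibition of growth. TGI denotes the concentration required for complete inhibition of growth.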

Experiment in all cases: NCI-60 cell line screen, 48 h
Test [1] has as its system LXFL 529 NSCLC.
Test [2] has as its system DMS 114 small cell lung.
Test [3] relates to HOP-18 NSCLC.
Test [4] has as its system SNB-78 CNS.
Test [5] concerns M19-MEL melanoma.
Test [6] has as its system DMS 273 small cell lung.
Test [7] has as its system MDA-N.
In test [8] the test system is XF 498 CNS.

For `Cn1cc(-c2ccc3c4ccccc4n(C)c3c2)c2ccccc21`, the TGI in test [1], in test [2], in test [3], in test [4] and in test [5] was above 100 µM in each case.
Consider `N.N.N.N.N#N.N#N.[Cl-].[Os+6]`, for which the GI50 in test [1] was above 100 µM; in test [6], above 100 µM; in test [3], 23.1 µM; in test [4], above 100 µM. In addition, the TGI in test [1], in test [6], in test [3] and in test [4] was above 100 µM each time.
`Nc1n[n+]([O-])c2ccc(Cl)cc2[n+]1[O-]` returned a TGI in test [7] of 73.5 µM.
Same read-out and setting: then `O=C1OC(c2ccc([N+](=O)[O-])cc2)=N/C1=C\c1ccc(Cl)cc1`, with above 100 µM.
With `O=C(n1c2ccccc2c2n[nH]c(=S)nc21)C(F)(F)F`, the TGI in test [1], in test [2], in test [6], in test [8], in test [4] and in test [5] was above 100 µM each time.
In turn, `CCN(Cc1cc(Cl)cc(C)c1O)Cc1c(O)ccc2ccccc12` showed a TGI in test [7] of 35.8 µM.
Same read-out and setting: next, `O=C(Nc1cc(Cl)c(I)c(Cl)c1)C(F)(F)F`: above 100 µM; `O=CNC(Cc1cnc[nH]1)C(=O)O` (stereo not given): above 100 µM.
Regarding `COc1ccc2c(c1OC)C(=O)C2`, the TGI in test [1], in test [2], in test [6], in test [8], in test [3] and in test [5] was above 100 µM throughout.
For the compound `CC(=O)/C=C1\CC(=O)N(C)c2ccccc2N1`, the TGI was above 100 µM in test [1]; 64.3 µM in test [2]; above 100 µM in test [6]; above 100 µM in test [8]; above 100 µM in test [4]; above 100 µM in test [5].
Compound `O=C1c2ccccc2C(=O)N1c1ccc(Cc2ccc(N3C(=O)c4ccccc4C3=O)cc2)cc1` had a TGI in test [7] above 100 µM.
As to `CN(C)CCCNc1ccnc2c([N+](=O)[O-])cccc12`, the TGI in test [2] is 5.56 µM; in test [6], 32.8 µM; in test [8], 28.2 µM; in test [4], above 100 µM; in test [5], 5.82 µM.
The compound `Nc1nc(N)nc(CCCCc2nc(N)nc(N)n2)n1` yielded a TGI in test [7] above 100 µM.
`CC(C)(C)C1=CC(=N/N=c2\scc(-c3ccccc3)n2Cc2ccccc2)C=C(C(C)(C)C)C1=O`: the TGI in test [1], in test [2], in test [6], in test [8] and in test [5] was above 100 µM throughout.
For the compound `O=C(O)CCC(O)=C1S(=O)(=O)OCCOS1(=O)=O`, the TGI in test [1], in test [2], in test [7], in test [6], in test [3] and in test [4] was above 100 µM throughout. In test [5], this compound returned a TGI above 100 µM.
Take `COc1ccc([N+](=O)[O-])c2c(NCCCN(C)C)c(C)c(C)nc12`: the TGI in test [7] is above 100 µM.
The same measure, in the same setting: next, `COC(=O)c1csc(-c2csc(CCNC(=O)OC(C)(C)C)n2)n1`: above 100 µM.
In the case of `COC1CCCc2c(OC(C)=O)ccc(OC(C)=O)c21` (stereo not given), the TGI in test [1], in test [2] and in test [4] was above 100 µM throughout.
Consider `COCN1COCN(C)C1=O`, for which the TGI in test [2], in test [6], in test [8], in test [3], in test [4] and in test [5] was above 100 µM throughout.
`N[C@H]1CCC[C@@H](O)C1O` (stereo not given in full) registered a TGI in test [7] above 100 µM.
Turning to `Cc1nc2ccccc2c(=O)n1/N=C(\N=Nc1ccc(Cl)cc1)c1cccc(-c2ccco2)c1`, the TGI in test [1], in test [6], in test [3] and in test [5] was above 100 µM in each case.
With `COC(=O)NC1(NC(=O)OC)NC(=O)c2ccccc2N1`, the TGI in test [7] was above 100 µM.
`C=C1C(=O)OC2CC1C(OC(=O)/C=C/c1ccccc1)C/C(C)=C/CC/C(C)=C/CCC2(C)O` (stereo not given) returned a TGI in test [7] of 2.67 µM.
As to `O=c1[nH]c2nc3ccccc3c(=O)n2nc1Cc1ccccc1`, the TGI in test [1], in test [2], in test [6] and in test [4] was above 100 µM each time.
For the compound `O=C(O)/C=C/c1c2ccc(=O)c(O)c-2oc2c(O)c(O)ccc12`, the TGI in test [7] was determined as 34.5 µM.
Regarding `NCC(=O)Nc1ccc(Cl)cc1C(=O)c1ccc[nH]1`, the TGI in test [7] was above 100 µM.
The same measure, in the same setting: then `O=S(=O)(F)Cc1ccccc1`, with above 100 µM.
